Reference: paper PMC9170688, “Gametocyte-specific and all-blood-stage transmission-blocking chemotypes discovered from high throughput screening on Plasmodium falciparum gametocytes” (Communications Biology, 2022)
“And” between values parts separate entries of the source, which are not always exact repeats. Identical values can stand only once.

Legend:
[1] = system: P. falciparum strain NF54-hsp70-luc stage V gametocytes fed to Anopheles stephensi mosquitoes; assay: whole plant or invertebrate; type: in vivo, Plasmodium falciparum; conditions: for luminescence signal of individual mosquitoes (SMFA, Fig. 5): one value per mosquito; for transmission blocking in SMFA: 24 h treatment
Experimental: The above selected 30 compounds were subjected to a phenotypic male gamete exflagellation assay. This assay measures the viability of male gametocytes by quantitating the final step of maturation into motile microgametes in vitro[24]. This process naturally occurs in the mosquito gut within minutes from the blood meal. The acquisition of time lapse videos of gamete motility in bright field microscopy and the subsequent analysis to count exflagellation centres were performed in an automated HTS format in 384-well plates. The compounds were tested in two independent biological replicates at the concentration of 1 µM. […] The standard membrane feeding assay (SMFA) is used to measure the parasite transmission through mosquito. In this assay, mature stage V gametocytes of the P. falciparum strain NF54-hsp70-luc were treated with 1 and 10 µM of the nine selected compounds for 24 h, added with human red blood cells and serum to achieve a haematocrit of 50% and then fed to mosquitoes. Luminescence was analyzed in the mosquito salivary glands 8 days post-feeding.
SMFA was performed commercially by TropiQ Health Sciences (Nijmegen, The Netherlands). Test samples were diluted in DMSO and then in RPMI medium (Gibco, 51800043) to achieve a final DMSO concentration of 0.1%. Diluted samples were combined with stage V gametocytes from P. falciparum strain NF54-hsp70-luc and incubated for 24 h. Subsequently, human red blood cells and human serum with the sample were added to achieve a haematocrit of 50%. The blood meal was fed to two-day old Anopheles stephensi mosquitoes that were starved the night prior to the blood meal. […] Mosquito infection was analyzed 8 days post-feeding by luminescence measurements of whole mosquitoes as described previously. For each feeder, luminescence intensity was analyzed in 15–24 mosquitoes per feeder (N = 1, n = 15–24). Luminescence background levels were determined from 15–24 uninfected mosquitoes. Controls: vehicle (0.1% DMSO) in duplicate.

[2] = system: P. falciparum NF54 male gametocytes (stage V); assay: Male gamete exflagellation assay; type: cell-based, Plasmodium falciparum; conditions: for Inhibition of male exflagellation at 1 µM: 48 h
Experimental: The above selected 30 compounds were subjected to a phenotypic male gamete exflagellation assay. This assay measures the viability of male gametocytes by quantitating the final step of maturation into motile microgametes in vitro[24]. This process naturally occurs in the mosquito gut within minutes from the blood meal. The acquisition of time lapse videos of gamete motility in bright field microscopy and the subsequent analysis to count exflagellation centres were performed in an automated HTS format in 384-well plates. The compounds were tested in two independent biological replicates at the concentration of 1 µM. […] The results of this study led to the identification of 16 compounds with anti-exflagellation activity (Fig. 4). […] The standard membrane feeding assay (SMFA) is used to measure the parasite transmission through mosquito. In this assay, mature stage V gametocytes of the P. falciparum strain NF54-hsp70-luc were treated with 1 and 10 µM of the nine selected compounds for 24 h, added with human red blood cells and serum to achieve a haematocrit of 50% and then fed to mosquitoes. Luminescence was analyzed in […] 8 days post-feeding.
Asexual parasites of the NF54 line, kindly obtained from Elena Levashina’s laboratory (Max Plank Institute for Infection Biology, Berlin, Germany), were seeded at 1% total parasitemia and grown for 16 days changing medium every day until development of stage V gametocytes (about 1–2% of stage V gametocytemia). 100 µl of gametocyte culture was seeded in each well of a 96 well-plate and 100 µl of 2× concentration of compounds or DMSO as control were added to each well to achieve the desired final concentration. Assay plates were incubated for 48 h at 37 °C in 4% CO2, 3% O2, and 93% N2 modified atmosphere. After the incubation period, 100 µl of medium were removed from each well and the other 100 µl were transferred to a black imaging 96 well plate (ibidi) containing 100 µl of complete medium supplemented with 40 µM of xanthurenic acid. After 15 min, exflagellation events were captured by three ten-second videos each well with an Olympus IX83 inverted microscope with a UPLSAPO 10× N.A. 0.75 objective (Olympus, Japan), equipped with a Hamamatsu ORCA-Flash 4.0 V3 camera. Each video was analyzed using the Icy bio-image analysis software (http://icy.bioimageanalysis.org/) to count the number of exflagellation events.

[3] = system: P. falciparum 3D7elo1-pfs16-CBG99 gametocytes; assay: P. falciparum gametocyte luminescence assay (PfLuc), primary HTS line 3D7elo1-pfs16-CBG99; type: cell-based, Plasmodium falciparum; conditions: 10 µM MB, Rep1-Rep2
Text: In this line, the CBG99 luciferase-coding region (from the click beetle Pyrophorus plagiophthalamus) is integrated into the parasite genome and expressed under the control of the pfs16 gametocyte-specific promoter.
Obtaining an accurate gametocyte synchronization with minimal parasite handling is of paramount importance to establish a robust and reliable HTS assay. To this aim, the timing of addition of N-acetyl glucosamine (NAG), used to clear residual asexual stages after appearance of stage I gametocytes, was optimized. […] Using these cultures, different haematocrit percentages (0.625, 1.25 and 2.5%) and two incubation times (48- and 72 h) were tested to identify the optimal luciferase readout.
A collection of 119.059 compounds of the CNCCS library was tested on gametocytes of the 3D7elo1-pfs16-CBG99 strain at 10 µM using the protocol described above. […]
(§1) Parasite gametocyte luminescence assays were performed in 384-well plates (Thermo, 4332, USA) by infected red blood cells seeded at 40 µL/well at a haematocrit of 0.625% for the strain 3D7elo1-pfs16-CBG99, 1.875% for both strains NF54 hsp86-PpyRE13 and NF54 pfs16-GFP-PyLUC. Assay were performed in the medium: 10.44 g/L RPMI 1640 Medium (Gibco, 51800043), 5.95 g/L HEPES (Sigma, H4034), 50 mg/L Hypoxantine (Sigma, 56700), 10% heat inactivated human serum, 10 ml of Neomycin solution (Sigma, N1142) and 2.1 g/L NaHCO3 (Sigma, 144-55-8). Compounds or DMSO as control were pre dispensed on plates, from 10 mM DMSO stock solutions, via an acoustic droplet ejection device (ATS-100, EDC Biosystems) to achieve the final desired concentration. Assay plates were incubated for 48 h at 37 °C in 4% CO2, 3% O2, and 93% N2 modified atmosphere. After incubation, 20 µL/well of a solution of luciferin (Regis, 1-360242-200) potassium/sodium salt (300 µg/ml) are added to the assay plates and read at suitable luminescence detection after 1 min incubation at room temperature. The whole HTS was performed in 7 rounds of 30–80 plates each in two months’ time.

[4] = system: P. falciparum NF54 male gametocytes (stage V); assay: Male gamete exflagellation assay; type: cell-based, Plasmodium falciparum; conditions: 48 h
[5] = system: P. falciparum NF54 pfs16-GFP-PyLUC gametocytes; assay: P. falciparum gametocyte luminescence assay (PfLuc), line NF54 pfs16-GFP-PyLUC; type: cell-based, Plasmodium falciparum; conditions: gametocytes, line NF54 pfs16; read-out: Pf Gametocytes NF54 pfs16 (IC50 nM)
Experimental: (§2) To exclude false positive compounds that may interfere with the click beetle CBG99 luciferase signal and to confirm the activity on gametocytes produced by other P. falciparum lines, we tested the above 638 compounds at a single concentration of 10 µM on gametocytes from two NF54 strain derived lines: pfs16-GFP-PyLUC (Photinus pyralis luciferase under the same pfs16 promoter)[14],[16],[27] and hsp86-PpyRE13 that was generated for this work to express the mutated Photinus pyralis PpyRE13 luciferase in gametocytes under the promoter of the pfhsp86 gene.
(§3) With the selected 84 compounds, the subsequent step aimed at determining the gametocyte inhibition potency and the parasite stage selectivity between the gametocytes and the asexual stages in the NF54 hsp86-PpyRE13. […] Similar data were obtained considering the gametocyte IC50 values measured in the NF54 pfs16-GFP-PyLUC strain (see Supplementary Data 2).
as §1

[6] = system: P. falciparum NF54 hsp86-PpyRE13 asexual stages; assay: P. falciparum asexual stage assay (pLDH); type: cell-based, Plasmodium falciparum; conditions: asexual stages, line NF54 Hsp86 PpYRE13; read-out: NF54 Hsp86 PpYRE13 (IC50 nM)
Experimental: as §3
Parasite proliferation assays were performed in 384-well plates (Thermo, 4332, USA) with a starting parasitemia of 0.25% at a haematocrit of 2% by quantification of parasite lactate dehydrogenase (pLDH). Compounds or DMSO as control were pre dispensed on plates, from 10 mM DMSO stock solutions, via an acoustic droplet ejection device (ATS-100, EDC Biosystems) to achieve de final desired concentration. Assay plates were incubated for 72 h at 37 °C in 4% CO2, 3% O2, and 93% N2 modified atmosphere. After the incubation period, plates are frozen at −80 °C for two h and then thawed at room temperature for 2 h. Then, 50 µL of the developer solution (70 mM Tris-HCl pH 8.0, 0.5% Tween-20, 100 mM Lithium L-Lactate, 125 µM nitro blue tetrazolium, 2 U/ml diaphorase and 100 µM 3-Acetylpyridine Adenine Dinucleotide) are added to each well and let to react for 10 min. Absorbance was then read at 650 nm by a suitable spectrophotometer.

HeLa cells = assay: HeLa cell proliferation assay (CellTiter Glo); type: cell-based, human
Experimental: In addition, we tested the 84 compounds in a dose-response fashion on HeLa cells to quantitatively monitor their cytotoxicity potential.
HeLa cells (CCL-2, ATCC, USA) were cultured in DMEM without phenol red (Thermo, 11880, USA) + 10% FBS + 1X PenStrep + 1X Gln. They were plated in a 384-well plate (Thermo, 4334-11, USA) to a density of 2000 cells per well and let recover for 4 h at 37 °C, 5% CO2 in a humidified atmosphere. After the recovery, compounds were transferred to assay plates as per compound preparation method. Assay plates were then incubated at 37 °C, 5% CO2 in a humidified atmosphere for 72 h. Cell viability was measured by the CellTiTer Glo (Promega, G8080, USA) as per manufacturer instruction.

[7] = system: P. falciparum NF54 hsp86-PpyRE13 gametocytes; assay: P. falciparum gametocyte luminescence assay (PfLuc), line NF54 hsp86-PpyRE13; type: cell-based, Plasmodium falciparum; conditions: gametocytes, line NF54 HSP86; read-out: Pf Gametocytes NF54 HSP86 (IC50 nM)
Experimental: as §2, §3, §1

## CS(=O)(=O)c1ccc(-c2cnc(N)c(-c3ccc(C(F)(F)F)nc3)c2)cc1 [MMV-048]
[1]; compound at 1 µM
  luminescence signal of individual mosquitoes (SMFA, Fig. 5): 6 and 9 and 5 and 28 and 32 and 4 and 3 and 8 and 58 and 2 and 20 and 83
[1]; compound at 10 µM
  luminescence signal of individual mosquitoes (SMFA, Fig. 5): 6 and 8 and 5 and 3 and 7

## CN(C)c1ccc2nc3ccc(=[N+](C)C)cc-3sc2c1 [MB, methylene blue]
[2]; Replicate 1
  Inhibition of male exflagellation at 1 µM: 2.985
[2]; Replicate 2
  Inhibition of male exflagellation at 1 µM: 1.163
[3]; 48 h, hematocrit 0.625%
  Luminescence counts: 88 RLU and 72 RLU
[3]; 48 h, hematocrit 2.5%
  Luminescence counts: 208 RLU and 224 RLU
[3]; 72 h, hematocrit 0.625%
  Luminescence counts: 64 RLU and 56 RLU
[3]; 72 h, hematocrit 1.25%
  Luminescence counts: 48 RLU and 56 RLU
[3]; 72 h, hematocrit 2.5%
  Luminescence counts: 80 RLU and 88 RLU
[4]; Replicate 3
  Inhibition of male exflagellation at 1 µM: 5.8
[4]; Replicate 4
  Inhibition of male exflagellation at 1 µM: 7.7

## CS(=O)(=O)c1ccc(-c2cnc(N)c(-c3ccc(C(F)(F)F)nc3)c2)cc1 [MMV0048, reference compound]
[1]; 1 µM
  transmission blocking in SMFA: abolished the parasite transmission
[1]; 10 µM
  transmission blocking in SMFA: abolished the parasite transmission

## O=S(=O)(NCC1(O)CCOc2ccccc21)c1ccc(Br)s1 (stereo not drawn) [Compound 84, reference compound]
[5]
  IC50: 11300 nM
[2]; Replicate 1
  Inhibition of male exflagellation at 1 µM: 1.9
[2]; Replicate 2
  Inhibition of male exflagellation at 1 µM: 0
[2]; 1 uM, replicate 1
  Exflagellation @ 1 uM (% of DMSO) 1: 1.90 % of DMSO
[2]; 1 uM, replicate 2
  Exflagellation @ 1 uM (% of DMSO) 2: 0.00 % of DMSO
[6]
  IC50: > 51200 nM
HeLa cells
  IC50: > 32000 nM
[7]
  IC50: 29600 nM
